# In US20070117840A1, “Receptor antagonist” (priority 2004, published 2007):
# Columns and labels:
# rat-type OT7T022 = target: T1, rat-type OT7T022 (Rattus norvegicus, UniProt Q9EP86); test: Binding inhibiting activity using rat-type OT7T022-expressing CHO cell membrane fraction; settings: iodine-labeled Y-RFRP-3 100 pM
# T1 construct: expressed in transfected cells; host or cells: CHO cells (membrane fraction)
# Description: Assessment of Binding Inhibiting Activity of Test Compound Using Rat-Type OT7T022-Expressing CHO Cell
# (1) Preparation of Rat-Type OT7T022-Expressing CHO Cell Membrane Fraction
# A flask in which a rat-type OT7T022-expressing CHO cell had been cultured was washed with 5 mM EDTA/PBS, cells were peeled with 5 mM EDTA/PBS, and cells were recovered by centrifugation, suspended in 25 mL of a buffer for preparing a membrane fraction (50 mM Tris-HCl, pH 7.5, 5 mM EDTA, 0.5 mM PMSF (manufactured by Wako Pure Chemical Industries, Ltd.), […] leupeptin (manufactured by Peptide Laboratory), 0.1 μg/mL pepstatin A (manufactured by Peptide Laboratory), 4 μg/mL E-64 (manufactured by Peptide Laboratory)), and homogenized on an ice using Polytron (12,000 rpm, 15 seconds×3 times). This was centrifuged in a high speed cooling centrifuge at 4° C. and 1,000 g for 10 minutes, and the supernatant was recovered. 25 mL of a buffer for preparing a membrane fraction was added to precipitates, and the supernatant was recovered by the same procedure. […] The pellet was suspended in a small amount of a buffer for preparing a membrane fraction, this was suspended using a Teflon (registered trade mark) homogenizer, a protein amount was measured using a part, and the remaining was dispensed, and stored at −80° C. […]
# human-type OT7T022 [1] = target: T2, human-type OT7T022 (Homo sapiens, UniProt Q9GZQ6); test: Antagonist activity in cAMP production inhibiting test system using human-type OT7T022-expressing CHO cell; format: cell-based; settings: intracellular cAMP, agonist human-type RFRP-3-8 20 nM, forskolin 2 μM
# T2 construct: expressed in transfected cells; host or cells: CHO cells (membrane fraction)
# Description: Test of Antagonist Activity of Compound in cAMP Production Inhibiting Test System Using Human-Type OT7T022-Expressing CHO Cell
# Antagonist activity of a test compound was measured in an intracellular cAMP production inhibiting test system of a CHO cell expressing human-type OT7T022. In the cAMP production inhibiting test, as an assay buffer, a Hanks' balanced salt solution (Gibco) to which 20 mM HEPES pH 7.4, 0.1% bovine serum albumin, and 0.2 mM 3-isobutyl-1-methylxanthine (Sigma) had been added, was used. A sample compound was adjusted with an assay buffer so that the final concentration became 10^−5M, 10^−6M, 10^−7M, 10^−8M, or 10^−10M. […] A human-type OT7T022-expressing CHO cell was passaged on a 96-well plate at 4×10^4/well, and cultured at 37° C., 5% CO2 and 95% air for one day. The plate which had been cultured for one day was washed with an assay buffer (150 μl) two times and, after 30 minutes, this was cultured for 30 minutes at 37° C. and 100% air. After washed with an assay buffer (150 μl) two times, 50 μl of a sample compound solution and, then, 50 μl of an agonist+forskolin solution were added, the mixture was stirred well and, after 30 minutes, this was cultured for 30 minutes at 37° C. and 100% air. An intracellular cAMP amount was measured according to a protocol of the present kit using cAMP-Screen™ system (ABI). […]
# human-type OT7T022 [2] = target: T2, human-type OT7T022; test: Binding inhibiting activity using human-type OT7T022-expressing CHO cell (125I-Y-RFRP-3); settings: human-type OT7T022-expressing CHO cell membrane fraction, 125I-labeled Y-RFRP-3 100 pM; read-out: IC50 value (binding inhibiting rate)
# Description: Assessment of Binding Inhibiting Activity of Test Compound Using Human-Type OT7T022-Expressing CHO Cell
# (1) Preparation of Iodine-Labeled Entity of Human-Type RFRP-3 (Y-RFRP-3)
# A part thereof was 1/100 diluted, radioactivity was measured with a γ-counter, and the remaining authentic product was distributed, which was stored at −30° C.
# (2) Assessment of Binding Inhibiting Activity
# For measuring non-specific binding, non-labeled Y-RFRP-3 was further added to […]. Then, a membrane fraction was transferred to a unifilter GF/C (Perkin Elmer) by filtering the reaction solution using a cell harvester (Perkin Elmer), and this was washed with a cooled 50 mM Tris buffer (pH 7.5) five times. The filter was dried, Microsinti (Packard) was added to the filter, and radioactivity was measured with Topcount (Packard).
# A binding inhibiting rate (IC50 value) of a test compound is shown in [Table 1].
# [3] = Blood glucose concentration after intravenous administration of RFRP-1 to rat; format: in vivo, Wistar male rat; settings: 10 nmol/kg, 5 minutes and 15 minutes after administration, compared with physiological saline group
# Source text: (§1) In FIG. 1, (-∘-) represents a blood glucose concentration of a physiological saline administration group, (-▴-) represents a blood glucose concentration of an RFRP-1 1 nmol/kg administration group, and (-▪-) represents a blood concentration of an RFRP-1 10 nmol/kg administration group.
# Blood Glucose Concentration Increasing Activity of RFRP
# As RFRP, human RFRP-1 (37 amino acids) consisting of an amino acid sequence of 56th (Ser) to 92nd (Phe) of an amino acid sequence represented by SEQ ID No.: 3. Hereinafter, this peptide is abbreviated as RFRP-1.
# In order to study influence of peripheral administration of RFRP-1 on a blood glucose concentration, operation for collecting blood under free moving was performed. A mature Wistar male rat (weight 310 to 350 g at operation) was anesthetized with 50 mg/kg of pentobarbital by intraperitoneal administration. The rat was fixed on an anatomic pad in a supine position, and a left jugular vein was exposed. […]
# Overnight after operation, 300 μl of blood was collected using a tuberculin injection syringe having a dose of 1 ml and a 25 gauge injection needle (both Telmo) before administration of RFRP-1. […] A blood glucose concentration was measured using Fuji Drichem 3500 (FUJIFILM).
# [4] = Blood glucagon and insulin concentration after intravenous administration of RFRP-1 to rat; format: in vivo, Wistar male rat
# Source text: In FIG. 2, (-∘-) represents a blood glucagon concentration of a physiological saline administration group, (-▴-) represents a blood glucagon concentration of an RFRP-1 1 nmol/kg administration group, and (-▪-) represents a blood glucagon concentration of an RFRP-1 10 nmol/kg administration group.
# as §1, with “FIG. 3,” for “FIG. 1,”, “blood insulin” for “blood glucose”, “blood insulin” for “blood”, “group. A value indicates mean±[…] (mean±SE) (n=4).” for “group.”
# Pancreatic Glucagon Secretion Promoting Activity of RFRP
# In order to study mechanism of blood glucose concentration increasing activity of RFRP-1, influence of RFRP-1 on a blood concentration of glucagon and insulin which are known as a hormone imparting a variation to a blood glucose concentration was studied. A mature Wistar male rat (weight 310 to 350 g at operation) was operated for collecting blood under free moving. Overnight after operation, 300 μl of a blood was collected using a tuberculin injection syringe having a dose of 1 ml and a 25 gauge injection needle (both Telmo) before administration of RFRP-1. […]
# T2 sequence (Q9GZQ6 whole entry): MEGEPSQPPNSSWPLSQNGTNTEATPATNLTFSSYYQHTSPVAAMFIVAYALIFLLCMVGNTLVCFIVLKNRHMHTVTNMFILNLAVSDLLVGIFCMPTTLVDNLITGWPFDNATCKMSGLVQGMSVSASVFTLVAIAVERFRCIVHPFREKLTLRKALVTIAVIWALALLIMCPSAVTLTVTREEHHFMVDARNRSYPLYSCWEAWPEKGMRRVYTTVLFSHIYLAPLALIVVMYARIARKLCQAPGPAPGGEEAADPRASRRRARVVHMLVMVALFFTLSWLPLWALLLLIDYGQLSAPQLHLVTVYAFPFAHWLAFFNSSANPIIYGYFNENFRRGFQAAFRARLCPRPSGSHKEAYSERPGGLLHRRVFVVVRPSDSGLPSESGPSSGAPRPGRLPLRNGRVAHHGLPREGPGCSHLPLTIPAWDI
# T1 sequence (Q9EP86 whole entry): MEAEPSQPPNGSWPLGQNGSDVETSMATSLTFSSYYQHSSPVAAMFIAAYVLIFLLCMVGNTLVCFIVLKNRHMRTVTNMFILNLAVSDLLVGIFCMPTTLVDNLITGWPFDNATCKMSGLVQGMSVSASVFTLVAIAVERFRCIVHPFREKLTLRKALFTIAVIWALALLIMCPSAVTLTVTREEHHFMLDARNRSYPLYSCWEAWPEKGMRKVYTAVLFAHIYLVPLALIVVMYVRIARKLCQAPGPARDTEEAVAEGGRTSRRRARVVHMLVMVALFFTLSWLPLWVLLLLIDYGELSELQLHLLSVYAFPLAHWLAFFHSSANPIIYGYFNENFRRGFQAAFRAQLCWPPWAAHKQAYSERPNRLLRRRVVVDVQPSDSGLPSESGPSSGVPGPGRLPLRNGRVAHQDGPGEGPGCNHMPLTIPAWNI
Compound,IC50 (rat-type OT7T022) [µM],IC50 (human-type OT7T022 [1]) [µM],IC50 (human-type OT7T022 [2]) [µM],blood glucose concentration [3],blood insulin concentration [4]
"CC(C)(C)Cn1c(C(=O)OC(C)(C)C)c(O)c2ccc(F)cc2c1=O [Example 1, tert-Butyl 7-fluoro-4-hydroxy-2-neopentyl-1-oxo-1,2-dihydro-3-isoquinolinecarboxylate]",< 1,< 5,< 1,–,–
"CC(C)(C)Cn1c(C(=O)OC(C)(C)C)c(O)c2cc(Cl)c(Cl)cc2c1=O [Example 3, tert-Butyl 6,7-dichloro-4-hydroxy-2-neopentyl-1-oxo-1,2-dihydro-3-isoquinolinecarboxylate]",< 1,< 5,< 1,–,–
"CCCCOc1c(C(=O)OC(C)(C)C)n(CC(C)(C)C)c(=O)c2ccc(F)cc12 [Reference Example 12, tert-Butyl 4-butoxy-6-fluoro-2-neopentyl-1-oxo-1,2-dihydro-3-isoquinolinecarboxylate]",–,–,< 1,–,–
RFRP-1: human RFRP-1 (37 amino acids) consisting of 56th (Ser) to 92nd (Phe) of the amino acid sequence of SEQ ID No.: 3 (SLNFEELKDWGPKNVIKMSTPAVNKMPHSFANLPLRF; Human),–,–,–,"significant (p<0.05, n=4) activity of increasing a blood glucose concentration",not recognized
